Data as given in publication PMC6930863 (CPT: Pharmacometrics & Systems Pharmacology, 2019).
Values joined by “and” are separate entries in the source; they are usually repeats but may differ in a detail not shown here. Equal values may be shown once. Read-outs that look alike come from different tables or passages of the source.

How the values were obtained:
[1] = cited from earlier work
[2] = human; cited from earlier work
[3] = rat
[4] = test system: proliferative crypt cells, including stem cells and proliferative progenitor cells; type: in vivo, Sprague-Dawley rats; details: rat, on proliferative crypt cells, fitted to plasma citrulline
[5] = test system: proliferative cells (the stem cells and proliferative progenitors); test: Translated and calibrated human system toxicology model; design: species or system humans; details: fitted to published villus area data after chemotherapy, value (% RSE)
[6] = human; cited from earlier work; remark: listed apart in the source
[7] = rat, fixed to literature value; cited from earlier work

CCc1c2c(nc3ccc(OC(=O)N4CCC(N5CCCCC5)CC4)cc13)-c1cc3c(c(=O)n1C2)COC(=O)[C@]3(O)CC [Irinotecan]
occurrence of ≥grade 3 diarrhea in the BI3W schedule compared with Q3W ([1]; 175 mg/m^2 days 1 and 10 every 3 weeks vs 350 mg/m^2 once every 3 weeks): significantly higher
efficacy in both dosing regimens (Q3W and BI3W) ([1]; 350 mg/m^2 Q3W vs 175 mg/m^2 BI3W): similar
k12, rate constant from central to peripheral 1 of irinotecan [2]: 57.8 h⁻¹
k21, rate constant from peripheral 1 to central of irinotecan [2]: 2.58 h⁻¹
k31, rate constant from peripheral 2 to central of irinotecan [2]: 0.0812 h⁻¹
Vmax, maximum rate of conversion from irinotecan to SN-38 ([3]; i.p. irinotecan, population TK model estimate): 20.6 nmol/h/kg
Dmaxp, coefficient for maximum irinotecan loss during absorption ([3]; i.p., population TK model estimate): 430 mg/kg
ka, absorption rate constant of irinotecan ([3]; i.p., % RSE NA): 10 h⁻¹

CCc1c2c(nc3ccc(O)cc13)-c1cc3c(c(=O)n1C2)COC(=O)[C@]3(O)CC [SN‐38, 7‐ethyl‐10‐hydroxy‐camptothecin]
kkill, cytotoxic rate by SN-38 [4]: 146 M⁻¹ s⁻¹
kkill, cytotoxic rate by SN-38 [5]: 11.0 1/day/μM and 11.0 (0.0328) 1/day/μM
Vm, central volume of SN-38 [2]: 200 L
kem, elimination rate constant of SN-38 [2]: 2.52 h⁻¹
mk12, rate constant from central to peripheral 1 of SN-38 [2]: 2.6 h⁻¹
mk21, rate constant from peripheral 1 to central of SN-38 [2]: 0.0584 h⁻¹
CLm, clearance of SN-38 ([3]; after i.p. irinotecan): 7.73 mL/min/kg
Vm, volume of SN-38 ([3]; after i.p. irinotecan, % RSE NA): 0.01 L/kg

NC(=O)NCCC[C@H](N)C(=O)O [citrulline]
kout, elimination rate constant of plasma citrulline [6]: 18.6 day⁻¹
plasma citrulline half-life [6]: 39 to 68.4 min
kout, elimination rate constant of plasma citrulline [7]: 8.52 day⁻¹
